In patent publication US20260152503A1, “SPIROBICYCLIC COMPOUNDS” (ACERAND THERAPEUTICS (HONG KONG) LIMITED, priority 2022, published 2026):
pIC50: −log10 of the molar value.

Tests used:
[1] = molecular target: T1, FGFR1 (Homo sapiens, UniProt P11362); assay: pERK potency assay (In Cell ELISA), DMS114 cells; type: cell-based; conditions: DMS114 (FGFR1 amplification) cells, 3 hours
T1 construct: DMS114 (FGFR1 amplification); host or cells: DMS114
Method in brief: (§1)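 Cells with FGFR aberrations (DMS114 FGFR1 amplification, RT112 FGFR3-TACC3 fusion, AN3CA FGFR2 K310R/N549K) exposed 3 h at 37 °C to compound, final 0.000038–10 μM (4-fold dilutions). pERK (Thr202/Tyr204) quantified by In-Cell ELISA chemiluminescence; IC50 from 4-parameter sigmoidal fit.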

[2] = molecular target: T2, Ba/F3 FGFR2-N549K (Homo sapiens, UniProt P21802, N549K, cells depend on it); assay: 2D cell proliferation assay, Ba/F3 FGFR2-N549K; type: cell-based, mouse; conditions: 96 hours, CTG, read-out: Cell Line, IC50 Ba/F3 FGFR2-N549K
T2 construct: fused on or other part: Q9H694 (Protein bicaudal C homolog 1)
Experimental: (§2) Low IC50 values are indicative of the high potency of the FGFR inhibitor compounds in this assay selling. […] Cell proliferation assays are performed in two-dimensional (2D)) anchorage-dependent conditions in 96 well plates (Corning® Black/Clear flat Bottom, Cat #3603) with the following cell lines: • Ba/F3 FGFR2-BICC1 (human […]): Mouse Ba/F3 cell line stably expressed exogenous human FGFR2-BICC1 fusion gene bearing V546F mutation in FGFR2 Ba/F3; • FGFR2-BICC1 (human FGFR2/[…]): Mouse Ba/F3 cell line stably expressed exogenous human FGFR2-BICC1 fusion gene bearing N549K mutation in FGFR2; • Snu-16: human gastric cancer cell with FGFR2 amplification; • KATO III: human gastric cancer cell with FGFR2 amplification; • AN3CA: Human endometrial cancer with FGFR2 mutation (k310R, N549K); • MFM-223: Human breast cancer with FGFR1/2 amplification; • MFE-296: Human endometrial cancer with FGFR2 mutation (N549K); • MFE-280: Human endometrial cancer with FGFR2 mutation ([…]); • NCI-H1581: human non-small cell lung cancer with FGFR1 amplification; • KG-1a: Acute myelogenous leukemia with FGFR1OP2-FGFR1 translocation; • DMS114: human small cell carcinoma of the lung with FGFR1 amplification; • RT112: human bladder cancer with FGFR3 overexpression/FGFR3-TACC3 fusion; • SW780: human bladder cancer with FGFR3 overexpression/FGFR3-BALAP2L1 fusion; • Hep3B: Liver cancer with FGF19 amplification (FGFR4 ligand); • AGS: Human gastric adenocarcinoma with Kras G12D mutation and FGFR wild type; • PC-9: human non-small cell lung cancer (NSCLC) with wild-type FGFR and an EGFR del19 mutation; or • H1975: human non-small cell lung cancer (NSCLC) with wild-type FGFR and EGFR L858R/T790M mutation.
(§3) Cell lines are purchased from the American Type Culture Collection (ATCC) or Sigma. All cell lines are maintained in RPMI-1640 or DMEM supplemented with 10% heat-inactivated fetal bovine serum.
(§4) Cells growing in the log phase are detached with Gibco™ TrypLE™ Express Enzyme and plated in 96 well plate at 3000 to 5000 cells/well in 100 μl of media. After overnight incubation at 37° C., 5% CO2 incubator, cells are treated with compounds (50 uL/well) at the final concentrations spanning from 0.000038 uM to 10 μM (4-fold serial dilution for total of 10 points). Cells are incubated at 37° C., 5% CO2, and 95% humidity incubator for 96 hours. At the end of incubation 2D CTG reagent from Promega was added to each well according to vendors recommendation and mixed for 10 min in dark. The luminescence signals are determined with a Biotek™ plate reader. Data is fitted using a sigmoidal curve analysis program (GraphPad Prism®) with variable hill slope and IC50 is determined.

[3] = system: KATO III; assay: 2D cell proliferation assay, KATO III; type: cell-based; conditions: Homo sapiens, 96 hours, CTG, read-out: Cell Line, IC50 KATO III
Experimental: as §2, §3, §4

[4] = molecular target: T3, FGFR3 (Homo sapiens, UniProt P22607); assay: pERK potency assay (In Cell ELISA), RT112 cells; type: cell-based; conditions: RT112 (FGFR3 overexpression/FGFR3-TACC3 fusion) cells, 3 hours
T3 construct: RT112 (FGFR3 overexpression/FGFR3-TACC3 fusion); host or cells: RT112; the other entry of the earlier key: TACC3 (Q9Y6A5, Transforming acidic coiled-coil-containing protein 3)
Method in brief: as §1

[5] = molecular target: T4, FGFR2 (Homo sapiens, UniProt P21802, K310R/N549K); assay: pERK potency assay (In Cell ELISA), AN3CA cells; type: cell-based; conditions: for pIC50: pERK, AN3CA (FGFR2/k310R, N549K) cells, 3 hours; for FGFR1 IC50/FGFR2 IC50 / FGFR3 IC50/FGFR2 IC50: selectivity ratio, pERK potency; for FGFR1 IC50/FGFR2 IC50: FGFR2 relative to FGFR1; for FGFR3 IC50/FGFR2 IC50: FGFR2 relative to FGFR3
T4 construct: in FGFR aberrations of AN3CA (FGFR2/k310R, N549K); host or cells: AN3CA
Method in brief: as §1

[6] = system: AN3CA; assay: 2D cell proliferation assay, AN3CA; type: cell-based; conditions: Homo sapiens, AN3-CA, 96 hours, CTG, read-out: Cell Line, IC50 AN3CA
Experimental: as §2, §3, §4

[7] = molecular target: T5, Ba/F3 FGFR2-V564F (Homo sapiens, UniProt P21802, V564F, cells depend on it); assay: 2D cell proliferation assay, Ba/F3 FGFR2-V564F; type: cell-based, mouse; conditions: 96 hours, CTG, read-out: Cell Line, IC50 Ba/F3 FGFR2-V564F
T5 construct: fused on or other part: Q9H694 (Protein bicaudal C homolog 1)
Experimental: as §2, §3, §4

[8] = system: SNU-16; assay: 2D cell proliferation assay, SNU-16; type: cell-based; conditions: Homo sapiens, 96 hours, CTG, read-out: Cell Line, IC50 SNU-16
Experimental: as §2, §3, §4

T4 sequence (P21802 22-821 K310R/N549K): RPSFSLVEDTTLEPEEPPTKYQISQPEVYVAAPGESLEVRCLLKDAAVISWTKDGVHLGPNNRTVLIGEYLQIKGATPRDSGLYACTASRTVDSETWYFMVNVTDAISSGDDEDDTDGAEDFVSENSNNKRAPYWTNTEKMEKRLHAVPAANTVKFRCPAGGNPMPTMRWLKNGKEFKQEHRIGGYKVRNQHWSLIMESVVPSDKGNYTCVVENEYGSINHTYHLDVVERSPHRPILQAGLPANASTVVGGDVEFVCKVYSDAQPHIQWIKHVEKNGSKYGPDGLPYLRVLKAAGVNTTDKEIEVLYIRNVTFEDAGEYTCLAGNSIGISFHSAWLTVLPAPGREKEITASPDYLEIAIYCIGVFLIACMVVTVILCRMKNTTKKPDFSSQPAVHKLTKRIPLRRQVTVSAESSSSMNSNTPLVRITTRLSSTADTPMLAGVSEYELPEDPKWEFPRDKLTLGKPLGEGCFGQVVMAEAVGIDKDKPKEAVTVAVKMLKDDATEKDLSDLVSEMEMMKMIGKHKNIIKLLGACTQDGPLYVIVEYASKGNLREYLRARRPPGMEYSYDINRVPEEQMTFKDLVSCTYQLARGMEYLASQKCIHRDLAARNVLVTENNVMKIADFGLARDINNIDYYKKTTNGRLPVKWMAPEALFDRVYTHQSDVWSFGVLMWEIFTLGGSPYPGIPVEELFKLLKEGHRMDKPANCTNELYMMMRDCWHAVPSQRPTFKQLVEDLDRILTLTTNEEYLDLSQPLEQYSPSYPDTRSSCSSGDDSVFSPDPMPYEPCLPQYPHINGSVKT
T2 sequence (P21802 whole entry N549K, the tested form may be a part): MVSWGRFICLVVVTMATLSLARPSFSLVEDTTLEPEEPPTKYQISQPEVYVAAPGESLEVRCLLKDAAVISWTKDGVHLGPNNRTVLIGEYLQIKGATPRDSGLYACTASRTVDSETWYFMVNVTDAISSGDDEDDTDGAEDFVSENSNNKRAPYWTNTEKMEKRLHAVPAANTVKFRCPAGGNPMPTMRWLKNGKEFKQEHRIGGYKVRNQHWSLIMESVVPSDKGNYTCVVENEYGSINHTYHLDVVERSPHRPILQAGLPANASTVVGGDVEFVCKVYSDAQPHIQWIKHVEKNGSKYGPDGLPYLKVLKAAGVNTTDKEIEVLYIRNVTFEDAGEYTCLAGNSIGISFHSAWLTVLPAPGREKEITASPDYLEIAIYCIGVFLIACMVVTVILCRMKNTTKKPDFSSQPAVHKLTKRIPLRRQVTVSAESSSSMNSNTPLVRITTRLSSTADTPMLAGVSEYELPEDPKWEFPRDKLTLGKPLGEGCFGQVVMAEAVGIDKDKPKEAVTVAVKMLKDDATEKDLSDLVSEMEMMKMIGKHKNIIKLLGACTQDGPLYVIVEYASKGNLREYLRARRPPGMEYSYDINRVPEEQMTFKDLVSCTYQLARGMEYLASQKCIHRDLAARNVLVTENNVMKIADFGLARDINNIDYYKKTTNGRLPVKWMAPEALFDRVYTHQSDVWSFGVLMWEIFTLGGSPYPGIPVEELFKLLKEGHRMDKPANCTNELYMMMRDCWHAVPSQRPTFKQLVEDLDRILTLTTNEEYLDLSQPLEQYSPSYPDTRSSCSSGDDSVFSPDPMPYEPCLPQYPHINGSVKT
T5 sequence (P21802 whole entry V564F, the tested form may be a part): as the sequence (P21802 whole entry N549K, the tested form may be a part) above, with K549N, V564F counted along it
T1 sequence (P11362 22-822): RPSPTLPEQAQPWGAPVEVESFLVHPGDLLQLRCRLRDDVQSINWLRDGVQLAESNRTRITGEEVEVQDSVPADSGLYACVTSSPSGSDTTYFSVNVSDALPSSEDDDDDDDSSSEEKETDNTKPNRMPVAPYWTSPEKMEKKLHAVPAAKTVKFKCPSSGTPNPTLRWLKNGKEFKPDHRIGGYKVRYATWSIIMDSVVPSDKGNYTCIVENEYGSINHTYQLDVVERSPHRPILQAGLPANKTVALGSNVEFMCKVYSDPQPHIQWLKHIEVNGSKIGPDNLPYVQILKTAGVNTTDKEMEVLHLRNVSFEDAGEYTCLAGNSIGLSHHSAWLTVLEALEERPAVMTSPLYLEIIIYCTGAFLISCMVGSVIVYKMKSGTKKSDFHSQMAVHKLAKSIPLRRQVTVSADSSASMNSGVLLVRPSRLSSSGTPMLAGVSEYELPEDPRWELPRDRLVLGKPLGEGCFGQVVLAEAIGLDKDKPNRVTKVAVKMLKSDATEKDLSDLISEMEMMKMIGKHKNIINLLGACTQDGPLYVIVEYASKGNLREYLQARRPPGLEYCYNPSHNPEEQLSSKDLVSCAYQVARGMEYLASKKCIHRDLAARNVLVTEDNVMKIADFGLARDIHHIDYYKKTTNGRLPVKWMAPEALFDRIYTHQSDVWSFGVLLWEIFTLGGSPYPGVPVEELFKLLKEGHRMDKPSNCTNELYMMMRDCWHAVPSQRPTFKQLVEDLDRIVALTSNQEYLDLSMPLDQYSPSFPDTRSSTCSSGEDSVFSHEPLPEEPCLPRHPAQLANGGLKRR

| SMILES | pIC50 [1] | GI50 [2] | pIC50 [3] | pIC50 [4] | pIC50 [5] | FGFR1 IC50/FGFR2 IC50 [5] | FGFR3 IC50/FGFR2 IC50 [5] | pIC50 [6] | GI50 [7] | pIC50 [8] |
| --- | --- | --- | --- | --- | --- | --- | --- | --- | --- | --- |
| C=CC(=O)N1CCC2(CC=C(c3c(-c4ncc(C#N)cn4)c4c(N)ncnc4n3C)CC2)CC1 [Example 51, 2-(6-(3-acryloyl-3-azaspiro[5.5]undec-8-en-9-yl)-4-amino-7-methyl-7H-pyrrolo[2,3-d]pyrimidin-5-yl)pyrimidine-5-carbonitrile] | < 7.00 | 1 to 10 nM | 7.52 to 8.00 | < 7.00 | ≥ 9.00 | J (a selectivity ratio greater than 2000) | J (a selectivity ratio greater than 2000) | 7.00 to 7.52 | 1 to 10 nM | 7.52 to 8.00 |
| C=CC(=O)N1CCC2(CC=C(c3c(-c4ncccn4)c4c(N)ncnc4n3C)CC2)CC1 [Example 33, 1-(9-(4-amino-7-methyl-5-(pyrimidin-2-yl)-7H-pyrrolo[2,3-d]pyrimidin-6-yl)-3-azaspiro[5.5]undec-8-en-3-yl)prop-2-en-1-one] | < 7.00 | 1 to 10 nM | 8.00 to 9.00 | < 7.00 | 8.00 to 9.00 | G (a selectivity ratio greater than 150 but less than or equal to 500) | I (a selectivity ratio greater than 1000 but less than or equal to 2000) | 7.52 to 8.00 | ≤ 1 nM | 8.00 to 9.00 |
| C=CC(=O)N1CCC2(CC=C(c3c(-c4ccc(OC5CC5)cc4)c4c(N)ncnc4n3C)CC2)CC1 [Example 18, 1-(9-(4-amino-5-(4-cyclopropoxyphenyl)-7-methyl-7H-pyrrolo[2,3-d]pyrimidin-6-yl)-3-azaspiro[5.5]undec-8-en-3-yl)prop-2-en-1-one] | < 7.00 | 1 to 10 nM | 8.00 to 9.00 | < 7.00 | ≥ 9.00 | G (a selectivity ratio greater than 150 but less than or equal to 500) | G (a selectivity ratio greater than 150 but less than or equal to 500) | 7.52 to 8.00 | 1 to 10 nM | 8.00 to 9.00 |
| C=CC(=O)N1CCC2(CC=C(c3c(-c4ncc(C(F)(F)F)cn4)c4c(N)ncnc4n3C)CC2)CC1 [Example 42, 1-(9-(4-amino-7-methyl-5-(5-(trifluoromethyl)pyrimidin-2-yl)-7H-pyrrolo[2,3-d]pyrimidin-6-yl)-3-azaspiro[5.5]undec-8-en-3-yl)prop-2-en-1-one] | < 7.00 | 1 to 10 nM | 7.52 to 8.00 | < 7.00 | ≥ 9.00 | J (a selectivity ratio greater than 2000) | J (a selectivity ratio greater than 2000) | 7.52 to 8.00 | 1 to 10 nM | 7.52 to 8.00 |
| C=CC(=O)N1CCC2(CC=C(c3c(-c4ccc(OC5CCC5)nc4)c4c(N)ncnc4n3C)CC2)CC1 [Example 26, 1-(9-(4-amino-5-(6-cyclobutoxypyridin-3-yl)-7-methyl-7H-pyrrolo[2,3-d]pyrimidin-6-yl)-3-azaspiro[5.5]undec-8-en-3-yl)prop-2-en-1-one] | < 7.00 | 1 to 10 nM | 8.00 to 9.00 | < 7.00 | 8.00 to 9.00 | F (a selectivity ratio greater than 50 but less than or equal to 150) | G (a selectivity ratio greater than 150 but less than or equal to 500) | 7.52 to 8.00 | 1 to 10 nM | 8.00 to 9.00 |
| C=CC(=O)N1CCC2(CC=C(c3c(-c4ccc(F)cc4)c4c(N)ncnc4n3C)CC2)CC1 [Example 11, 1-(9-(4-amino-5-(4-fluorophenyl)-7-methyl-7H-pyrrolo[2,3-d]pyrimidin-6-yl)-3-azaspiro[5.5]undec-8-en-3-yl)prop-2-en-1-one] | < 7.00 | 1 to 10 nM | 7.00 to 7.52 | < 7.00 | 8.00 to 9.00 | I (a selectivity ratio greater than 1000 but less than or equal to 2000) | J (a selectivity ratio greater than 2000) | 7.00 to 7.52 | 30 to 100 nM | 7.52 to 8.00 |
| C=CC(=O)N1CCC2(CC=C(c3c(-c4cnc(OC)c(F)c4)c4c(N)ncnc4n3C)CC2)CC1 [Example 28, 1-(9-(4-amino-5-(5-fluoro-6-methoxypyridin-3-yl)-7-methyl-7H-pyrrolo[2,3-d]pyrimidin-6-yl)-3-azaspiro[5.5]undec-8-en-3-yl)prop-2-en-1-one] | < 7.00 | 1 to 10 nM | 8.00 to 9.00 | < 7.00 | 8.00 to 9.00 | F (a selectivity ratio greater than 50 but less than or equal to 150) | G (a selectivity ratio greater than 150 but less than or equal to 500) | 7.52 to 8.00 | 10 to 30 nM | 8.00 to 9.00 |
| C=CC(=O)N1CCC2(CC=C(c3c(-c4ccc(OC(F)F)cc4)c4c(N)ncnc4n3C)CC2)CC1 [Example 17, 1-(9-(4-amino-5-(4-(difluoromethoxy)phenyl)-7-methyl-7H-pyrrolo[2,3-d]pyrimidin-6-yl)-3-azaspiro[5.5]undec-8-en-3-yl)prop-2-en-1-one] | 7.00 to 7.52 |  | 8.00 to 9.00 | < 7.00 | ≥ 9.00 | G (a selectivity ratio greater than 150 but less than or equal to 500) | G (a selectivity ratio greater than 150 but less than or equal to 500) | 7.52 to 8.00 |  | 8.00 to 9.00 |
